From patent US8710018B2, “Methods and compositions for inhibiting progression to chronic cardiac failure” (priority 2008, dated 2014)

Assays:
[1] = tested on: patients with chronic coronary artery disease and CHF; conditions: 3 weeks of oral D-ribose, 15 patients with existing CHF, cited from earlier work
rodent MI model = conditions: continuous i.v. ribose from before ligation for up to 48 hours, cited from earlier work
myocardial ATP levels [2] = conditions: cited from earlier work
[3] = tested on: rat myocardial infarction model (left anterior descending (LAD) artery ligation); experiment: Rat myocardial infarction model (LAD artery ligation), echocardiographic function of the remote myocardium; format: in vivo
Excerpt: Although believed to be applicable to several different precipitating causes of CHF, the present inventor initially chose a myocardial infarction model because it would allow the effects of the infarct on the normal remaining myocardium to be studied without confounding factors, particularly the presence of disease in the tissues studied.
An important consequence of an MI is that the uninvolved, often normal, remote myocardium (RM) must assume the entire workload of the ventricle. […] The subcellular events which control and set in motion, the progression to CHF were heretofore unknown. The present inventor hypothesized that the progression begins when the remaining normal myocardium (RM) must assume the entire cardiac load, in effect a large increase for the RM, producing an unfavorable myocardial energy supply/demand ratio which leads to depressed myocardial energy levels. Moreover, because of the continuous nature of the stress imposed, there is essentially no opportunity to recover. As a result, the continued breakdown of AMP with further erosion of ATP levels occurs. Studies to understand this progression in a myocardial infarction (MI) model were undertaken. The hypothesis that a fall in RM energy levels, including myocardial ATP, leads to decreased function was tested by infusing ribose in a rat MI model. A rat myocardial infarction model involving (left anterior descending (LAD) artery ligation) was utilized. In this model the RM must produce the entire cardiac output and left ventricular (LV) dysfunction develops as depicted in FIG. 2 and in the results depicted in FIGS. 3-6.
Methods: Male Lewis rats (250-300 g, n=12) were evaluated by initial baseline 2D guided M-mode echocardiographic analysis using an HP SONOS 1550 system. The echocardiography included short axis views and EF by cubed formula, analyzing the variables of LVdd, LVsd, RM wall thickness, EF and SF. […] Animals underwent ligation of the left anterior descending coronary artery by to produce an anterior wall MI at 1-2 days after pump placement and received continuous venous infusion of 0.9% NaCl solution (at 30 μl/kg/hr) with or without 2.5% D-ribose (N=6 for each group) via the implanted osmotic mini-pump for 14 days. Echocardiographic analysis was performed 2 and 4 weeks post-MI to assess changes in function by ejection indices (ventricular contractility, ejection and shortening fractions), chamber dimensions, and wall thickness. FIG. 3 depicts the M-mode echocardiographic appearance of a rat heart in which post MI CHF has developed.

myocardial ATP levels [4] = conditions: rats given a toxic dose of isoproterenol and constriction of the abdominal aorta; cited from earlier work
[5] = 2 wks post MI, 2.5% D-ribose continuous venous infusion for 14 days
[6] = 4 wks post MI, 2.5% D-ribose continuous venous infusion for 14 days
[7] = Pre-MI (baseline), ribose group
[8] = ribose infusion for 14 days after MI

For O=C[C@H](O)[C@H](O)[C@H](O)CO [Ribose, D-ribose], the “quality of life by questionnaire” value ([1]; P< or =0.01) is listed as 467±128, the E wave deceleration ([1]; P=0.002) is listed as 196±42 and the left atrial dimension ([1]; P=0.02) is listed as 47 ± 18 mL. For the same compound, the “post-MI rise in LV end-diastolic pressure” value (rodent MI model) was “reduced”, the “fall of ATP in the nonischemic myocardium” value (rodent MI model; first (24 hr) time point) was “reduce the fall of ATP” and the “speeding of ATP recovery” value (myocardial ATP levels [2]; acute stress models of recovery (i.e. global ischemia), ribose bypasses the G6PDH step) was “at least 10 fold”. The “return of myocardial ATP levels and function” value (myocardial ATP levels [2]; global ischemia and reperfusion model, ribose infusion) was “greatly enhance return”, the “Ejection fraction (EF)” value [3, 5] was 50.5 ± 5.9 % and the LV diastolic diameter [3, 5] was 0.72 ± 0.08 cm. For the same compound, the LV systolic diameter [3, 5] was 0.47 ± 0.22 cm, the “Posterior wall diastolic thickness” value [3, 5] was 0.18 ± 0.12 cm and the “Shortening fraction (SF)” value [3, 5] was 19.8 ± 4.4%. For the same compound, the “Ejection fraction (EF)” value [3, 6] was 49.1 ± 9.4 %, the LV diastolic diameter [3, 6] was 0.76 ± 0.07 cm and the LV systolic diameter [3, 6] was 0.64 ± 0.09 cm. For the same compound, the “Posterior wall diastolic thickness” value [3, 6] was 0.13 ± 0.03 cm, the Septal diastolic thickness [3, 6] was 0.12 ± 0.02 cm and the “Shortening fraction (SF)” value [3, 6] was 19.9 ± 6.1 %. The “Ejection fraction (EF)” value [3, 7] was 76.4 ± 5.9%, the LV systolic diameter [3, 7] was 0.39 ± 0.06 cm and the “Posterior wall diastolic thickness” value [3, 7] was 0.13 ± 0.02 cm. For the same compound, the Septal diastolic thickness [3, 7] was 0.13 ± 0.02 cm, the “Shortening fraction (SF)” value [3, 7] was 38.6 ± 5.3% and the LV diastolic diameter ([3]; Pre-MI (baseline), ribose group, 2.5% D-ribose continuous venous infusion 30 μl/kg/hr for 14 days) was 0.64 ± 0.04 cm. For the same compound, the “contractility (EF, SF) compared to the untreated animals” value [3, 8] was “better preserved”, the ventricular dilation [3, 8] was “significantly reduced” and the “wall thickness compared to the untreated animals” value [3, 8] was “increased”. For the same compound, the ATP levels (myocardial ATP levels [4]) was “maintained for 24 hours”.
